Source: patent publication US20240116985A1, “STAPLED PEPTIDES AND METHODS THEREOF” (priority 2020, published 2024)
pIC50: −log10 of the molar value. Like-named read-outs stand apart in the source and are kept apart here.

Key:
[1] = target: T1, full-length beta-Catenin (Uniprot ID P35222) (Homo sapiens, UniProt P35222); test: Fluorescence polarization IC50 (beta-catenin / 5FAM-TCF4 10-53 competition); format: binding; details: read-out: beta-Catenin FP IC50
T1 construct: 10 nM full-length beta-Catenin (Uniprot ID P35222)
T1 sequence (P35222 1-781): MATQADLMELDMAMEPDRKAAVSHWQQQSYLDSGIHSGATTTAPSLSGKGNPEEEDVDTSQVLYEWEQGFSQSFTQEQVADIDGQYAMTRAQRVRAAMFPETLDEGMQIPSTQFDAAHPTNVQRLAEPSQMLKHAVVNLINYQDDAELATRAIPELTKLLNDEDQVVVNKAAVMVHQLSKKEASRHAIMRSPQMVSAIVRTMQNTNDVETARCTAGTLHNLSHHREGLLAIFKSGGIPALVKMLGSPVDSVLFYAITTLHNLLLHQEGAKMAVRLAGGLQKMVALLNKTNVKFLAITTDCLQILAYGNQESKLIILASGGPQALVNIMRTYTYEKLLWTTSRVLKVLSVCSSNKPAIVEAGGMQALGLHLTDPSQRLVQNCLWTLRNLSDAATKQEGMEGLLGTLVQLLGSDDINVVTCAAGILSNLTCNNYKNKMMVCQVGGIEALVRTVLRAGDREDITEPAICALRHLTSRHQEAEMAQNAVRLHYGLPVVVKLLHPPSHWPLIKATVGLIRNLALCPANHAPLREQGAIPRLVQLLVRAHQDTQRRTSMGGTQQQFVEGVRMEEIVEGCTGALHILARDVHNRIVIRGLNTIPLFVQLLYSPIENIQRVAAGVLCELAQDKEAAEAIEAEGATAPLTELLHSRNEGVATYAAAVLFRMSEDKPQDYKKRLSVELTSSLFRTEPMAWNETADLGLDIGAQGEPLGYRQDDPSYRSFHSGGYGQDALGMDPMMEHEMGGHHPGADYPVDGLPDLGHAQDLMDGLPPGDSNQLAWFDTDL

[2] = target: T2, beta-catenin/TCF4 engagement (Homo sapiens, UniProt P35222); test: Nano-BRET target engagement assay (B-cat-Halo & TCF4-Luc in HEK293 cells); format: cell-based; details: read-out: NanoBRET Abs IC50
T2 construct: expressed in transfected cells; host or cells: HEK293
T2 sequence (P35222 1-781): T1 sequence (P35222 1-781)

[3] = test system: TCF/LEF luciferase Reporter in DLD1 cells; test: TCF reporter assay (DLD1 TCF/LEF luciferase reporter, Bright-Glo); format: cell-based
How it was run: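 DLD1 cells stably carrying a TCF/LEF luciferase reporter were plated at 5000 cells/well in RPMI + 4% FBS and treated overnight with a 1:2 compound dilution series. Bright-Glo luminescence read on day 3; viability by CellTiter-Glo. Absolute IC50 determined.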

[4] = read-out: DLD1 4% Abs IC50, DLD1 reporter, 4%, absolute IC50
[5] = read-out: DLD1 4% Abs IC50, DLD1 4%
[6] = absolute IC50, read-out: DLD1 reporter assay Abs IC50

Row | SMILES | pIC50 ([1]; fluorescence polarization) | pIC50 ([2]; absolute IC50) | pIC50 [3, 4] | pIC50 [2] | pIC50 [3, 5] | pIC50 [1] | pIC50 [3, 6]
1 | CC(=O)N1CCC[C@]12CC=CCCCC1(CCCC=CCCCOC(=O)N3CC[C@@](C(=O)N[C@@H](Cc4ccccc4C(F)(F)F)C(=O)N[C@@H](Cc4csc5ccccc45)C(=O)N[C@@H](CCC(N)=O)C(=O)N[C@@H](CC(C)C)C(=O)N[C@H](C(N)=O)[C@@H](C)O)(C3)NC(=O)[C@H](CC(C)C)NC(=O)[C@H](Cc3ccccc3)NC(=O)[C@H](C)NC(=O)[C@H](C)NC(=O)[C@H](Cc3cccc(C(=O)O)c3)NC(=O)[C@H](CC(=O)O)NC1=O)NC(=O)[C@H](CC(C)(C)C)NC(=O)[C@H](CC(=O)O)NC2=O (stereo partly drawn) [I-2383, Ac-PL3-Asp-Npg-B5-Asp-3COOHF-Ala-Ala-Phe-Leu-PyrS2-2F3MeF-BztA-Gln-Leu-Thr-NH2] | 7.11 | 5.38 | 6.10 | – | – | – | –
2 | CC(=O)N1CCC[C@]12CC=CCCCC1(CCCC=CCCCOC(=O)N3CC[C@@](C(=O)N[C@@H](Cc4ccsc4)C(=O)N[C@@H](Cc4csc5ccccc45)C(=O)N[C@H](C(N)=O)[C@@H](C)O)(C3)NC(=O)[C@H](CC(N)=O)NC(=O)[C@H](Cc3ccccc3)NC(=O)[C@H](C)NC(=O)C(C)(C)NC(=O)[C@H]([C@@H](C)O)NC(=O)[C@H](CC(N)=O)NC1=O)NC(=O)[C@H](CC(C)(C)C)NC(=O)[C@H](CC(=O)O)NC2=O (stereo partly drawn) [I-2416, Ac-PL3-Asp-Npg-B5-Asn-Thr-Aib-Ala-Phe-Asn-PyrS2-3Thi-BztA-Thr-NH2] | 6.88 | < 4.70 | < 4.70 | – | – | – | –
3 | CC(=O)N1CCC[C@]12CC=CCCCC1(CCCC=CCCCOC(=O)N3CC[C@@](C(=O)N[C@@H](Cc4ccsc4)C(=O)N[C@@H](Cc4csc5ccccc45)C(=O)N[C@@H](CCC(N)=O)C(N)=O)(C3)NC(=O)[C@H](CC(C)C)NC(=O)[C@H](Cc3ccccc3)NC(=O)[C@H](C)NC(=O)[C@H](C)NC(=O)[C@H](Cn3cc(CC(=O)O)nn3)NC(=O)[C@H](CC(=O)O)NC1=O)NC(=O)[C@H](CC(C)(C)C)NC(=O)[C@H](CC(=O)O)NC2=O (stereo partly drawn) [I-2084, Ac-PL3-Asp-Npg-B5-Asp-[CH2CO2H]TriAzDap-Ala-Ala-Phe-Leu-PyrS2-3Thi-BztA-Gln-NH2] | 8.30 | – | – | 5.04 | 5.01 | – | –
4 | CC(=O)N1CCC[C@]12CC=CCCCC1(CCCC=CCCCOC(=O)N3CC[C@@](C(=O)N[C@@H](Cc4ccsc4)C(=O)N[C@@H](Cc4csc5ccccc45)C(=O)N[C@@H](C)C(N)=O)(C3)NC(=O)[C@H](CC(C)C)NC(=O)[C@H](Cc3ccccc3)NC(=O)[C@H](C)NC(=O)C(C)(C)NC(=O)[C@H](Cc3cccc(C(=O)O)c3)NC(=O)[C@H](CC(=O)O)NC1=O)NC(=O)[C@H](CC(C)(C)C)NC(=O)[C@H](CC(=O)O)NC2=O (stereo partly drawn) [I-1920, Ac-PL3-Asp-Npg-B5-Asp-3COOHF-Aib-Ala-Phe-Leu-PyrS2-3Thi-BztA-Ala-NH2] | 7.74 | – | – | 5.51 | 5.92 | – | –
5 | CC(=O)N1CCC[C@]12CC=CCCCC1(CCCC=CCCCOC(=O)N3CC[C@@](C(=O)N[C@@H](Cc4ccsc4)C(=O)N[C@@H](Cc4csc5ccccc45)C(=O)N[C@@H](CCC(N)=O)C(=O)O)(C3)NC(=O)[C@H](CC(N)=O)NC(=O)[C@H](Cc3ccccc3)NC(=O)[C@H](C)NC(=O)[C@H](C)NC(=O)[C@H](CN(CC(=O)O)CC(F)(F)F)NC(=O)[C@H](CC(=O)O)NC1=O)NC(=O)[C@H](CC(C)(C)C)NC(=O)[C@H](CC(=O)O)NC2=O (stereo partly drawn) [I-1026, Ac-PL3-Asp-Npg-B5-Asp-TfeGA-Ala-Ala-Phe-Asn-PyrS2-3Thi-BztA-Gln-OH] | – | 4.78 | – | – | – | 8.30 | < 4.70
6 | CC(=O)N1CCC[C@]12CC=CCCCC1(CCCC=CCCCOC(=O)N3CC[C@@](C(=O)N[C@@H](Cc4ccccc4C(F)(F)F)C(=O)N[C@@H](Cc4csc5ccccc45)C(=O)N[C@@H](CCC(N)=O)C(=O)N[C@@H](CC(C)C)C(=O)N[C@@H](CCC(N)=O)C(N)=O)(C3)NC(=O)[C@H](CC(C)C)NC(=O)[C@H](Cc3ccccc3)NC(=O)[C@H](C)NC(=O)[C@H](C)NC(=O)[C@H](Cc3cccc(C(=O)O)c3)NC(=O)[C@H](CC(=O)O)NC1=O)NC(=O)[C@H](CC(C)(C)C)NC(=O)[C@H](CC(=O)O)NC2=O (stereo partly drawn) [I-2382, Ac-PL3-Asp-Npg-B5-Asp-3COOHF-Ala-Ala-Phe-Leu-PyrS2-2F3MeF-BztA-Gln-Leu-Gln-NH2] | 7.43 | 5.40 | 5.12 | – | – | – | –
7 | CC(=O)N1CCC[C@]12CC=CCCCC1(CCCC=CCCCOC(=O)N3CC[C@@](C(=O)N[C@@H](Cc4ccccc4C(F)(F)F)C(=O)N[C@@H](Cc4csc5ccccc45)C(=O)N[C@@H](CCC(N)=O)C(=O)N[C@@H](CC(C)C)C(=O)N[C@@H](CC(N)=O)C(N)=O)(C3)NC(=O)[C@H](CC(C)C)NC(=O)[C@H](Cc3ccccc3)NC(=O)[C@H](C)NC(=O)[C@H](C)NC(=O)[C@H](Cc3cccc(C(=O)O)c3)NC(=O)[C@H](CC(=O)O)NC1=O)NC(=O)[C@H](CC(C)(C)C)NC(=O)[C@H](CC(=O)O)NC2=O (stereo partly drawn) [I-2390, Ac-PL3-Asp-Npg-B5-Asp-3COOHF-Ala-Ala-Phe-Leu-PyrS2-2F3MeF-BztA-Gln-Leu-Asn-NH2] | 7.66 | 5.04 | 5.85 | – | – | – | –
8 | CC(=O)N1CCC[C@]12CC=CCCCC1(CCCC=CCCCOC(=O)N3CC[C@@](C(=O)N[C@@H](Cc4ccsc4)C(=O)N[C@@H](Cc4csc5ccccc45)C(=O)N[C@@H](CCC(N)=O)C(N)=O)(C3)NC(=O)[C@H](CC(C)C)NC(=O)[C@H](Cc3ccccc3)NC(=O)[C@H](C)NC(=O)[C@H](C)NC(=O)[C@H](CCn3cc(CC(C)(C)C(=O)O)nn3)NC(=O)[C@H](CC(=O)O)NC1=O)NC(=O)[C@H](CC(C)(C)C)NC(=O)[C@H](CC(=O)O)NC2=O (stereo partly drawn) [I-2077, Ac-PL3-Asp-Npg-B5-Asp-[CH2CMe2CO2H]TriAzDab-Ala-Ala-Phe-Leu-PyrS2-3Thi-BztA-Gln-NH2] | 8.05 | – | – | 4.91 | 5.24 | – | –
9 | CC(=O)N1CCC[C@]12CC=CCCCC1(CCCC=CCCCOC(=O)N3CC[C@@](C(=O)N[C@@H](Cc4ccccc4Cl)C(=O)N[C@@H](Cc4csc5ccccc45)C(=O)N[C@@H](C)CO)(C3)NC(=O)[C@H]([C@@H](C)O)NC(=O)[C@H](Cc3ccccc3)NC(=O)[C@H](C)NC(=O)[C@H](C)NC(=O)[C@H](CN(CC(=O)O)CC(F)(F)F)NC(=O)[C@H](CC(=O)O)NC1=O)NC(=O)[C@H](CC(C)(C)C)NC(=O)[C@H](CC(=O)O)NC2=O (stereo partly drawn) [I-1242, Ac-PL3-Asp-Npg-B5-Asp-TfeGA-Ala-Ala-Phe-Thr-PyrS2-2C1F-BztA-Alao1] | 7.52 | < 4.70 | 5.42 | – | – | – | 5.32
10 | CC(=O)N1CCC[C@]12CC=CCCCC1(CCCC=CCCCOC(=O)N3CC[C@@](C(=O)N[C@@H](Cc4ccccc4C(F)(F)F)C(=O)N[C@@H](Cc4csc5ccccc45)C(=O)N[C@@H](CCC(N)=O)C(=O)N[C@@H](CC(C)C)C(=O)N[C@@H](C)C(N)=O)(C3)NC(=O)[C@H](CC(C)C)NC(=O)[C@H](Cc3ccccc3)NC(=O)[C@H](C)NC(=O)[C@H](C)NC(=O)[C@H](Cc3cccc(C(=O)O)c3)NC(=O)[C@H](CC(=O)O)NC1=O)NC(=O)[C@H](CC(C)(C)C)NC(=O)[C@H](CC(=O)O)NC2=O (stereo partly drawn) [I-2378, Ac-PL3-Asp-Npg-B5-Asp-3COOHF-Ala-Ala-Phe-Leu-PyrS2-2F3MeF-BztA-Gln-Leu-Ala-NH2] | 7.51 | 5.32 | 6.00 | – | – | – | –
11 | CC(=O)N1CCC[C@]12CC=CCCCC1(CCCC=CCCCOC(=O)N3CC[C@@](C(=O)N[C@@H](Cc4ccsc4)C(=O)N[C@@H](Cc4csc5ccccc45)C(=O)N[C@@H](CC(N)=O)C(=O)N[C@@H](C)C(=O)N[C@@H](C)C(=O)N[C@H](C)C(N)=O)(C3)NC(=O)[C@H](CC(C)C)NC(=O)[C@H](Cc3ccccc3)NC(=O)[C@H](C)NC(=O)[C@H](C)NC(=O)[C@H](Cc3cccc(C(=O)O)c3)NC(=O)[C@H](CC(=O)O)NC1=O)NC(=O)[C@H](CC(C)(C)C)NC(=O)[C@H](CC(=O)O)NC2=O (stereo partly drawn) [I-2047, Ac-PL3-Asp-Npg-B5-Asp-3COOHF-Ala-Ala-Phe-Leu-PyrS2-3Thi-BztA-Asn-Ala-Ala-dAla-NH2] | 7.96 | – | – | 5.59 | 5.89 | – | –
